Assay results taken from patent US11339130B1 (Blade Therapeutics, Inc., priority 2016, dated 2022).
Counter-ions that a name gives are not always drawn. Like-named read-outs stand apart in the source and are kept apart here.

Assays:
Human Calpain 2/NS1 = molecular target: T1, Human Calpain 2/NS1 (Homo sapiens, UniProt P17655); assay: Calpain inhibition continuous fluorescence (FRET) assay, Human Calpain 2/NS1; type: biochemical
T1 sequence (P17655 1-700): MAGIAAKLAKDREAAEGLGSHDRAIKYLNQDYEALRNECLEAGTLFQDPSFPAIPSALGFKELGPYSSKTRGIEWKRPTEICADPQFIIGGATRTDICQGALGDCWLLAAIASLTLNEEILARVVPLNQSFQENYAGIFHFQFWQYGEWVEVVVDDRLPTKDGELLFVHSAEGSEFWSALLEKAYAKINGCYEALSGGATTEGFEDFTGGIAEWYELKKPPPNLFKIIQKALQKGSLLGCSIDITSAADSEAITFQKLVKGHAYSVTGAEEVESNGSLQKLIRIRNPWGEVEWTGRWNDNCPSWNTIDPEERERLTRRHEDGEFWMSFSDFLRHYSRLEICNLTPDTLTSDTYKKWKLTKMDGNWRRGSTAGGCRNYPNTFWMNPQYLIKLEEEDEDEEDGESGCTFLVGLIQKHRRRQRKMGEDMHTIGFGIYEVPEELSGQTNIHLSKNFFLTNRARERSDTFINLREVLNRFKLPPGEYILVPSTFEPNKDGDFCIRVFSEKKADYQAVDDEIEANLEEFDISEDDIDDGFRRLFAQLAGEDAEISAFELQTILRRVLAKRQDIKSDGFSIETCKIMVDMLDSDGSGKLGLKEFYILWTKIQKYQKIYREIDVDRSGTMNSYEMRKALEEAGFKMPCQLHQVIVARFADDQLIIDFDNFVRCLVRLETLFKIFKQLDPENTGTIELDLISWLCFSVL
T1 sequence (P04632 1-268 partner): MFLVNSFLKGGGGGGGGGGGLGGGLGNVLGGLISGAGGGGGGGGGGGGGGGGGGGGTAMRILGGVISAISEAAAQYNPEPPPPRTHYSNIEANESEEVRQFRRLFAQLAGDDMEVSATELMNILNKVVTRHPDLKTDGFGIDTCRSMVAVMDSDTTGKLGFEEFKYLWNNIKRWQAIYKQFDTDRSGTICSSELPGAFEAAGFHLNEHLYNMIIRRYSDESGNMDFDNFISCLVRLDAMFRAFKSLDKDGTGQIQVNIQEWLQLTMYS
Method in brief: (§1)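 Buffer 50 mM Tris pH 7.5/100 mM NaCl/1 mM DTT; enzyme + cpd preinc 25C; start w/ FRET substrate + CaCl2; kinetic 490/520 nm, 10 min; slopes 1-5 min; 4-PL IC50.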

Human Calpain 1/NS1 = molecular target: T2, Human Calpain 1/NS1 (Homo sapiens, UniProt P07384); assay: Calpain inhibition continuous fluorescence (FRET) assay, Human Calpain 1/NS1; type: biochemical
T2 sequence (P07384 1-714): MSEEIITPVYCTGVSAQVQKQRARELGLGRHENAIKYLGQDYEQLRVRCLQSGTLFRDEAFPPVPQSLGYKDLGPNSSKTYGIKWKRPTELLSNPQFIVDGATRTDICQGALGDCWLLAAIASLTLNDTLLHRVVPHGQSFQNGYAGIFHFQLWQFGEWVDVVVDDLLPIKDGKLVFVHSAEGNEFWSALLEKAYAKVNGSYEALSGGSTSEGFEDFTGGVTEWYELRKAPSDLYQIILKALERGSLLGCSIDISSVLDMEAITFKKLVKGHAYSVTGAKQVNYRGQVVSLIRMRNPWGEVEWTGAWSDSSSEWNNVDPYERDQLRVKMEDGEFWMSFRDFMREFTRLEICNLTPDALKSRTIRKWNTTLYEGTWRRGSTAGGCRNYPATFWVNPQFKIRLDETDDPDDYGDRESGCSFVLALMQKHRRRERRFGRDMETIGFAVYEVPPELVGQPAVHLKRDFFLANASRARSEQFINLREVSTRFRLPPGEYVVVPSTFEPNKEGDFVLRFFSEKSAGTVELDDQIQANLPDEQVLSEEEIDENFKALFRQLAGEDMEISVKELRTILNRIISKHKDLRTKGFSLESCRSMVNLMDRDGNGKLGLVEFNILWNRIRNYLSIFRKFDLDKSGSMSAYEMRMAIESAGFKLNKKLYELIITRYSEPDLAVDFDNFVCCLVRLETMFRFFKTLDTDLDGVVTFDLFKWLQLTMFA
T2 sequence (P04632 1-268 partner): T1 sequence (P04632 1-268 partner)
Method in brief: as §1

[1] = tested on: Calpain activity in SH-SY5Y cells; assay: SH-SY5Y + AMC fluorescence assay (Suc-LLVY-AMC substrate); type: cell-based
Human Calpain 9/NS1 = molecular target: T3, Human Calpain 9/NS1 (Homo sapiens, UniProt O14815); assay: Calpain inhibition continuous fluorescence (FRET) assay, Human Calpain 9/NS1; type: biochemical
T3 sequence (O14815 1-690): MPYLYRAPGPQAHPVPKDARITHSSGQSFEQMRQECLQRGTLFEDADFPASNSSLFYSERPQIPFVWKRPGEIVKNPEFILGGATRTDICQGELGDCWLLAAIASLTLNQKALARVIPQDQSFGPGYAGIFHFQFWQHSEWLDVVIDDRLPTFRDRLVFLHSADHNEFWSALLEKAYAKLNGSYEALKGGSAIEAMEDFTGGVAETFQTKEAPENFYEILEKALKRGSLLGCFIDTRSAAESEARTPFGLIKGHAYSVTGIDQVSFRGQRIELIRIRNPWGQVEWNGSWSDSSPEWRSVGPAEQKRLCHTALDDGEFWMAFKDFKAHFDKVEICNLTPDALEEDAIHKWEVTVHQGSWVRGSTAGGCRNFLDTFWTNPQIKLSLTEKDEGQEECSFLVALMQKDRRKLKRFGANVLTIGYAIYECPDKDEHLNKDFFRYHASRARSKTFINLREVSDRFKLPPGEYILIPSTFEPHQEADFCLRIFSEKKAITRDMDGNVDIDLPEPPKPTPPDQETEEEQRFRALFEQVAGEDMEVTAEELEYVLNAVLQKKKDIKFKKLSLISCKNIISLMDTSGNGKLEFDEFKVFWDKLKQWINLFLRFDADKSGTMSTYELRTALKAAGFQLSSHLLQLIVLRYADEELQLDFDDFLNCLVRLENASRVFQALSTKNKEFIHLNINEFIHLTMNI
T3 sequence (P04632 1-268 partner): T1 sequence (P04632 1-268 partner)
Method in brief: as §1

[2] = tested on: Calpain activity in SH-SY5Y cells (SBDP-150); assay: SH-SY5Y Spectrin western blot assay (SBDP-150 breakdown product, A23187-induced); type: cell-based; details: Homo sapiens, read-out: SH-SY5Y Spectrin IC50
[3] = Column B, read-out: Human Calpain 2/NS1 IC50
[4] = Column A, read-out: Human Calpain 1/NS1 IC50
[5] = Column E, read-out: SH-SY5Y + AMC IC50
[6] = Column C, read-out: Human Calpain 9/NS1 IC50
[7] = Column D, SH-SY5Y cells, A23187-induced SBDP-150
[8] = read-out: SH-SY5Y + AMC IC50, Column E

| SMILES | IC50 (Human Calpain 2/NS1; [3]) [µM] | IC50 (Human Calpain 1/NS1; [4]) [µM] | IC50 [1, 5] [µM] | IC50 (Human Calpain 9/NS1; [6]) [µM] | IC50 [2, 7] [µM] | IC50 [1, 8] [µM] | IC50 ([2]; SH-SY5Y) [µM] | IC50 (Human Calpain 2/NS1) [µM] | IC50 (Human Calpain 1/NS1) [µM] | IC50 (Human Calpain 9/NS1) [µM] |
| --- | --- | --- | --- | --- | --- | --- | --- | --- | --- | --- |
| Cc1cc(C(=O)N[C@@H](Cc2ccccc2)C(=O)C(N)=O)n(-c2ccc(CNS(=O)(=O)c3ccccc3)cc2)n1 [Compound 156, (S)—N-(4-amino-3,4-dioxo-1-phenylbutan-2-yl)-3-methyl-1-(4-(phenylsulfonamidomethyl)phenyl)-1H-pyrazole-5-carboxamide] | < 3 | < 3 | > 25 | < 3 | < 10 |  |  |  |  |  |
| CC(=O)NCc1ccc(-n2nc(C)cc2C(=O)N[C@@H](Cc2ccccc2)C(=O)C(N)=O)cc1 [Compound 157, (S)-1-(4-(acetamidomethyl)phenyl)-N-(4-amino-3,4-dioxo-1-phenylbutan-2-yl)-3-methyl-1H-pyrazole-5-carboxamide] | < 3 | < 3 |  | < 3 |  | > 25 | > 25 |  |  |  |
| COC(=O)NCc1ccc(-n2nc(C)cc2C(=O)N[C@@H](Cc2ccccc2)C(=O)C(N)=O)cc1 [Compound 158, Methyl (S)-(4-(5-((4-amino-3,4-dioxo-1-phenylbutan-2-yl)carbamoyl)-3-methyl-1H-pyrazol-1-yl)benzyl)carbamate] | < 3 | < 3 | > 25 | < 3 | 10 to 25 |  |  |  |  |  |
| Cc1cc(C(=O)N[C@@H](Cc2ccccc2)C(=O)C(N)=O)n(-c2ccc(CNC(=O)Cc3ccccc3)cc2)n1 [Compound 159, (S)—N-(4-amino-3,4-dioxo-1-phenylbutan-2-yl)-3-methyl-1-(4-((2-phenylacetamido)methyl)phenyl)-1H-pyrazole-5-carboxamide] | < 3 | < 3 | > 25 | < 3 | 10 to 25 |  |  |  |  |  |
| Cc1cc(C(=O)N[C@@H](Cc2ccccc2)C(=O)C(N)=O)n(-c2ccc(CNCc3ccccc3)cc2)n1 [Compound 160, (S)—N-(4-amino-3,4-dioxo-1-phenylbutan-2-yl)-1-(4-((benzylamino)methyl)phenyl)-3-methyl-1H-pyrazole-5-carboxamide hydrochloride] | < 3 | < 3 | > 25 | < 3 | 10 to 25 |  |  |  |  |  |
| Cc1cc(C(=O)N[C@@H](Cc2ccccc2)C(=O)C(N)=O)n(-c2ccc(CNC(=O)Oc3ccccc3)cc2)n1 [Compound 162, Phenyl (S)-(4-(5-((4-amino-3,4-dioxo-1-phenylbutan-2-yl)carbamoyl)-3-methyl-1H-pyrazol-1-yl)benzyl)carbamate] |  |  |  |  |  | > 25 | > 25 | < 3 | < 3 | < 3 |

Now from value to compound, other results behind:

| IC50 (Human Calpain 2/NS1; [3]) [µM] | IC50 (Human Calpain 1/NS1; [4]) [µM] | IC50 [1, 5] [µM] | IC50 (Human Calpain 9/NS1; [6]) [µM] | IC50 [2, 7] [µM] | SMILES | IC50 [1, 8] [µM] | IC50 ([2]; SH-SY5Y) [µM] | IC50 (Human Calpain 2/NS1) [µM] | IC50 (Human Calpain 1/NS1) [µM] | IC50 (Human Calpain 9/NS1) [µM] |
| --- | --- | --- | --- | --- | --- | --- | --- | --- | --- | --- |
| < 3 | < 3 | 10 to 25 | < 3 | 10 to 25 | Cc1cccc(-c2nn(C)cc2C(=O)N[C@@H](Cc2ccccc2)C(=O)C(N)=O)c1 [Compound 163, (S)—N-(4-amino-3,4-dioxo-1-phenylbutan-2-yl)-1-methyl-3-(M-tolyl)-1H-pyrazole-4-carboxamide] |  |  |  |  |  |
| < 3 | < 3 | > 25 | < 3 | > 25 | Cn1ncc(C(=O)N[C@@H](Cc2ccccc2)C(=O)C(N)=O)c1-c1ccccn1 [Compound 164, (S)—N-(4-amino-3,4-dioxo-1-phenylbutan-2-yl)-1-methyl-5-(pyridin-2-yl)-1H-pyrazole-4-carboxamide] |  |  |  |  |  |
| < 3 | < 3 | > 25 | < 3 | 10 to 25 | Cc1ccc(-c2nn(C)cc2C(=O)N[C@@H](Cc2ccccc2)C(=O)C(N)=O)cc1 [Compound 166, (S)—N-(4-amino-3,4-dioxo-1-phenylbutan-2-yl)-1-methyl-3-(p-tolyl)-1H-pyrazole-4-carboxamide] |  |  |  |  |  |
| < 3 | < 3 | < 10 | < 3 | 10 to 25 | Cn1cc(C(=O)N[C@@H](Cc2ccc(F)cc2)C(=O)C(N)=O)c(-c2ccccc2)n1 [Compound 168, (S)—N-(4-amino-1-(4-fluorophenyl)-3,4-dioxobutan-2-yl)-1-methyl-3-phenyl-1H-pyrazole-4-carboxamide] |  |  |  |  |  |
